The assay has as its system mutant Huntington (HTT) protein. In words: HTT Mutant HTRF iPSC assay (mHTT protein lowering). Format: cell-based. Conditions: human iPSC derived from a HTT patient with a poly-Q49 mutation. A general note: In TR-FRET formats the signal depends on donor and acceptor labels being close together.

For the compound `Cc1cn2nc(-c3cc(F)c4nc(C5CCN(C6CC6)CC5)cn4c3)cc(C)c2n1` [Compound 113, 6-[2-(1-cyclopropyl-4-piperidyl)-8-fluoro-imidazo[1,2-a]pyridin-6-yl]-2,8-dimethyl-imidazo[1,2-b]pyridazine], the 50% inhibitory concentration (IC50) (as a rule, the midpoint of a concentration-inhibition curve) was less than 100 nM. The figure for `Cc1nc2ccc(-c3cc(F)c4nn(C5CCNCC5)cc4c3)nn2n1` [Compound 561, 6-(7-fluoro-2-(piperidin-4-yl)-2H-indazol-5-yl)-2-methyl-[1,2,4]triazolo[1,5-b]pyridazine] is less than 100 nM.

Compound `Cc1cn2cc(-c3cc(F)c4nc(C5CCN(C)CC5)cn4c3)ccc2n1` [Compound 10, 8-fluoro-2′-methyl-2-(1-methylpiperidin-4-yl)-6,6′-biimidazo[1,2-a]pyridine] showed a half-inhibitory concentration (IC50) of 1000 to 9000 nM.

`COc1cc(-c2cc(F)c3nc(C)cn3c2)cc2nn(C3CCNCC3)nc12` [Compound 548, 6-(8-fluoro-2-methyl-imidazo[1,2-a]pyridin-6-yl)-4-methoxy-2-(4-piperidyl)benzotriazole] displayed a half-maximal inhibitory concentration (IC50) of 1000 to 9000 nM. In the case of `Cc1cn2nc(-c3cc(F)c4nc(N5CCC(CN(C)C)C5)oc4c3)cc(C)c2n1` (stereo not shown) [Compound 491, 1-(1-(6-(2,8-dimethylimidazo[1,2-b]pyridazin-6-yl)-4-fluorobenzo[d]oxazol-2-yl)pyrrolidin-3-yl)-N,N-dimethylmethanamine] it was 100 to 1000 nM; in that of `Cc1cn2cc(-c3cc(F)c4nn(C5CCNCC5)cc4c3)cc(F)c2n1` [Compound 136, 7-fluoro-5-(8-fluoro-2-methylimidazo[1,2-a]pyridin-6-yl)-2-(piperidin-4-yl)-2H-indazole], 100 to 1000 nM; in that of `Cc1cn2cc(-c3cc(F)c4[nH]c(C5CCNCC5)nc4c3)cc(Cl)c2n1` [Compound 144, 5-(8-chloro-2-methylimidazo[1,2-a]pyridin-6-yl)-7-fluoro-2-(piperidin-4-yl)-1H-benzo[d]imidazole], 1000 to 9000 nM.

Compound `Cc1nc2c(F)cc(-c3cc(F)c4[nH]c(C5CCNCC5)nc4c3)cn2n1` [Compound 149, 8-fluoro-6-(7-fluoro-2-(piperidin-4-yl)-1H-benzo[d]imidazol-5-yl)-2-methyl-[1,2,4]triazolo[1,5-a]pyridine] yielded a half-inhibitory concentration (IC50) of 1000 to 9000 nM. Compound `Fc1cc(-c2ccc3nc(C(F)F)cn3n2)cc2cn(C3CCNCC3)nc12` [Compound 352, 2-(difluoromethyl)-6-(7-fluoro-2-(piperidin-4-yl)-2H-indazol-5-yl)imidazo[1,2-b]pyridazine] displayed a concentration for half-maximal inhibition (IC50) of 1000 to 9000 nM. Regarding `Cc1cn2nc(-c3cc(F)c4[nH]c(C5CC6(CCNC6)C5)nc4c3)cc(C)c2n1` (stereo not shown) [Compound 420, 6-(7-fluoro-2-(6-azaspiro[3.4]octan-2-yl)-1H-benzo[d]imidazol-5-yl)-2,8-dimethylimidazo[1,2-b]pyridazine], the IC50 is 100 to 1000 nM. The figure for `Cc1cn2nc(-c3cc(F)c4nn(CC5CNC5)nc4c3)cc(C)c2n1` [Compound 383, 2-(azetidin-3-ylmethyl)-6-(2,8-dimethylimidazo[1,2-b]pyridazin-6-yl)-4-fluoro-2H-benzo[d][1,2,3]triazole] is 100 to 1000 nM; for `Cc1cn2cc(-c3cc(F)c4nc(C5CCNCC5)cn4c3)cc2c(C)n1` [Compound 31, 6-(1,3-dimethylpyrrolo[1,2-a]pyrazin-7-yl)-8-fluoro-2-(piperidin-4-yl)imidazo[1,2-a]pyridine] it is less than 100 nM.

`Cc1csc2cc(-c3cc(F)c4nc(C5CCNCC5)cn4c3)cnc12` [Compound 35, 6-(8-fluoro-2-(piperidin-4-yl)imidazo[1,2-a]pyridin-6-yl)-3-methylthieno[3,2-b]pyridine] gave an IC50 of 1000 to 9000 nM. In the case of `Cn1cc2cc(-c3cc(F)c4nn(C5CCNCC5)nc4c3)cc(C(F)F)c2n1` [Compound 382, 6-(7-(difluoromethyl)-2-methyl-2H-indazol-5-yl)-4-fluoro-2-(piperidin-4-yl)-2H-benzo[d][1,2,3]triazole] it was 100 to 1000 nM; in that of `CCN1CCC(Nc2nc3c(F)cc(-c4cc(C)c5nc(C)cn5n4)cc3o2)CC1C` (stereo not shown) [Compound 471, 6-(2,8-dimethylimidazo[1,2-b]pyridazin-6-yl)-N-(1-ethyl-2-methylpiperidin-4-yl)-4-fluorobenzo[d]oxazol-2-amine], less than 100 nM. In the case of `Cc1cn2nc(-c3cc(F)c4nc([C@H]5C[C@@]6(CCNC6)C5)cn4c3)cc(C)c2n1` [Compound 193, 6-(8-fluoro-2-((2r,4r)-6-azaspiro[3.4]octan-2-yl)imidazo[1,2-a]pyridin-6-yl)-2,8-dimethylimidazo[1,2-b]pyridazine] it was less than 100 nM; in that of `Cc1cn2nc(-c3cc(F)c4nn(C5CCNCC5)cc4c3)ccc2n1` [Compound 365, 6-(7-fluoro-2-(piperidin-4-yl)-2H-indazol-5-yl)-2-methylimidazo[1,2-b]pyridazine], less than 100 nM.

`Cc1cn2nc(-c3cc(F)c4nn(C5CC6(CCNCC6)C5)nc4c3)cc(C)c2n1` [Compound 395, 6-(2,8-dimethylimidazo[1,2-b]pyridazin-6-yl)-4-fluoro-2-(7-azaspiro[3.5]nonan-2-yl)-2H-benzo[d][1,2,3]triazole] registered an IC50 of less than 100 nM. Consider `Cc1cn2nc(-c3cc(F)c4nc(C5CCN(C6CC6)CC5)cn4c3)ccc2n1` [Compound 106, 6-(2-(1-cyclopropylpiperidin-4-yl)-8-fluoroimidazo[1,2-a]pyridin-6-yl)-2-methylimidazo[1,2-b]pyridazine], for which the IC50 is less than 100 nM. The figure for `Cc1cn2nc(-c3cc(F)c4nc(N5CCC56CCN(C)CC6)oc4c3)cc(C)c2n1` [Compound 493, 6-(2,8-dimethylimidazo[1,2-b]pyridazin-6-yl)-4-fluoro-2-(7-methyl-1,7-diazaspiro[3.5]nonan-1-yl)benzo[d]oxazole] is 100 to 1000 nM. In the case of `Cc1cn2cc(-c3cc(F)c4nc(C5CCNCC5)cn4c3)cc(Cl)c2n1` [Compound 32, 8-chloro-8′-fluoro-2-methyl-2′-(piperidin-4-yl)-6,6′-biimidazo[1,2-a]pyridine] it was 100 to 1000 nM; in that of `CCN1CCC(N(C)c2nc3c(F)cc(-c4cc(C)c5nc(C)cn5n4)cc3o2)CC1C` (stereo not shown) [Compound 503, 6-(2,8-dimethylimidazo[1,2-b]pyridazin-6-yl)-N-(1-ethyl-2-methylpiperidin-4-yl)-4-fluoro-N-methylbenzo[d]oxazol-2-amine], less than 100 nM; in that of `Cc1cn2cc(-c3cc(F)c4[nH]c(C5CCNCC5)nc4c3)cc2c(C)n1` [Compound 145, 5-(1,3-dimethylpyrrolo[1,2-a]pyrazin-7-yl)-7-fluoro-2-(piperidin-4-yl)-1H-benzo[d]imidazole], 1000 to 9000 nM.

`Cc1cn2nc(-c3cc(F)c4nc(NC(=O)CN5CCCCC5)cn4c3)cc(C)c2n1` [Compound 275, N-(6-(2,8-dimethylimidazo[1,2-b]pyridazin-6-yl)-8-fluoroimidazo[1,2-a]pyridin-2-yl)-2-(piperidin-1-yl)acetamide] had a concentration for half-maximal inhibition (IC50) of less than 100 nM. For the compound `CN1C(=O)COc2cc(-c3cc(F)c4nc(C5CCNCC5)cn4c3)cnc21` [Compound 73, 7-(8-fluoro-2-(piperidin-4-yl)imidazo[1,2-a]pyridin-6-yl)-4-methyl-2H-pyrido[3,2-b][1,4]oxazin-3(4H)-one], the concentration for half-maximal inhibition (IC50) lay within 1000 to 9000 nM.

Values taken from patent publication US20250353841A1 (BIOGEN MA INC., priority 2022, published 2025).
